Measurements from patent US20250092086A1, “CELASTROL SALTS, CRYSTALLINE FORMS, AND USES THEREOF” (ERX Pharmaceuticals Inc., priority 2022, published 2025).
Values after ≈ are worked out from the molar mass of the structure shown. “Also recorded” adds a separate entry of the source.

Columns and labels:
Assay type in all cases: physicochemical
[1] = Hygroscopicity (DVS), water sorption/desorption at 37° C.; conditions: for DVS (hygroscopicity): water sorption/desorption isotherms at 37° C., 0-95% RH
Procedure: The hygroscopicity experiments were carried out with a DVS Intrinsic from S.M.S. This technique is designed to accurately measure a sample's change in mass as it sorbs precisely controlled concentrations of water vapors in an air carrier gas. The method used for DVS experiments (at 37° C.) is summarized below. • Equilibrating 10 min at 50% RH • Decreasing to 0% RH in 60 min • Equilibrating 10 min at 0% RH • Increasing to 95% RH in 280 min • Equilibrating 10 min at 95% RH • Decreasing to 50% RH in 100 min • Equilibrating 20 min at 50% RH
(§1) The hygroscopic experiments were carried out with a DVS Intrinsic from S.M.S. This technique is designed to accurately measure a sample's change in mass as it sorbs precisely controlled concentrations of water vapors in an air carrier gas. All the methods used for DVS experiments are summarized below. It should be noticed that the temperature and relative humidity (RH) are pre-set according to the initial temperature and RH.
• Equilibrating 120 min at 50% RH • Decreasing to 0% RH in 60 min • Equilibrating 150 min at 0% RH • Increasing to 95% RH in 200 min • Equilibrating 360 min at 95% RH • Decreasing to 50% RH in 100 min • Equilibrating 150 min at 50% RH
as §1, with “hygroscopicity” for “hygroscopic”, “below, and it” for “below. It”
as §1, with “hygroscopicity” for “hygroscopic”

[2] = XRPD under temperature and relative humidity; conditions: for XRPD under temperature: impact / new crystalline phase: 25 to 100° C., RH set at 30%; for XRPD under relative humidity: impact / new crystalline phase: RH 10 to 80-90% at 40° C.
Procedure: Method 1: influence of temperature at ambient RH. RH was set at 30% in order to simulate a RH near from the ambient RH, and the temperature studied were 25-[…]-100° C.
Method 2: influence on RH at 40° C. The RH studied was at 10-30-80%.
These experiments studied the influence of temperature at ambient RH. RH was wet at 30% in order to simulate a RH near from the ambient RH, and the temperatures studied were 25-50-100° C.
These experiments studied the influence on RH at 40° C. The RH studied were 10-30-88%.
Using Method 1, the influence of temperature at ambient RH was studied. RH was set at 30% in order to simulate a RH near from the ambient RH, and the temperatures studied were 25-50-100° C. FIG. 24 provides the XRPD pattern representing the influence of temperature on Compound 1 Form I.
Using Method 2, the influence on RH at 40° C. was studied. The RH studied were 10-30-90%.
Using Method 1, the influence of temperature at ambient RH was studied. RH was set at 30% in order to simulate a RH near from the ambient RH. Temperature studied: 25-50-100° C.
Using Method 2, the influence on RH at 40° C. was studied at 10-30-90%.

[3] = Solubility profile of Compound 1 Form III in water, ethanol and methanol; conditions: for solubility: thermodynamic from solid
Procedure: The solubility of Compound 1 Form III was measured in the following solvents: water, ethanol and methanol. The determination of the solubility profile was performed with a Thermomixer Eppendorf driving the temperature and the mixing. The stock solutions were prepared according to the USP (United States Pharmacopeia), and then about 1 mL of these stock solutions was added to the API in tubes of 2 mL.

[4] = pH solubility profile at 37° C. of Compound 1 Form III
Procedure: All the buffer solutions were prepared according to the U.S.P namely hydrochloric acid buffer for pH=2.0, acid phthalate buffer for pH=4.0, phosphate buffer for pH=6.0, alkaline borate buffer for pH=8.0, which correspond to the native pH. At the end of the solubility study, the pH of the solutions were controlled again (final pH) to determine any variation. The solubility was measured at 37° C. The maximum concentration limit was set at 100 g/L max to minimize consumption of the tested compound.

[5] = Polymorph screening, cooling experiments (solubility of Form III in screening solvents); conditions: all solvents tested with the exception of dichloromethane, even at high temperature
Procedure: Solutions of Compound 1 Form III were prepared at respectively 50 and 150 g/L in each solvent. Heat was applied when necessary to get a solution. Once a solution was obtained, the vials were cooled down to 10° C.

SMILES: CC1=C(O)C(=O)C=C2C1=CC=C1[C@@]2(C)CC[C@@]2(C)[C@@H]3C[C@](C)(C(=O)O)CC[C@]3(C)CC[C@]12C [Compound 1 Form III, 3-hydroxy-9β,13α-dimethyl-2-oxo-24,25,26-trinoroleana-1(10),3,5,7-tetraen-29-oic acid]
- Hysteresis observed with the final mass at 50% RH ([1]; DVS, 37° C.): No hysteresis
- Mass decrease as RH was lowered to 0% ([1]; DVS, 37° C.): ~0.06%
- Mass increase as RH was increased to 95% ([1]; DVS, 37° C.): ~0.09%
- Water uptake, water sorption/desorption isotherms ([1]; DVS, 37° C.): < 0.2%
- DVS (hygroscopicity) [1]: non-hygroscopic
- DVS (hygroscopicity) ([1]; listed as FIII): Not hygroscopic
- DVS (hygroscopicity) ([1]; listed as Form III): nonhygroscopicity; also recorded: Non hygroscopic compound
- XRPD under temperature: impact / new crystalline phase [2]: stable
- XRPD under temperature: impact / new crystalline phase ([2]; listed as FIII): =>No new crystalline
- XRPD under relative humidity: impact / new crystalline phase [2]: stable
- XRPD under relative humidity: impact / new crystalline phase ([2]; listed as FIII): =>No new crystalline
- solubility ([3]; 30 °C, water, 10, 30 and 50° C.): < 1 mg/mL
- Solubility profile: ethanol (description) ([3]; ethanol): Ethanol: Soluble
- Solubility profile: methanol (description) ([3]; methanol): Methanol: Sparingly Soluble
- solubility ([3]; organic solvent or mixture, ethanol, 10° C.): 33 to 38 mg/mL (≈ 73.2 to 84.3 mM)
- solubility ([3]; organic solvent or mixture, ethanol, 30° C.): 33 to 38 mg/mL (≈ 73.2 to 84.3 mM)
- solubility ([3]; organic solvent or mixture, ethanol, 50° C.): 33 to 38 mg/mL (≈ 73.2 to 84.3 mM)
- solubility ([3]; organic solvent or mixture, methanol, 10° C.): 27 to 33 mg/mL (≈ 59.9 to 73.2 mM)
- solubility ([3]; organic solvent or mixture, methanol, 30° C.): 27 to 33 mg/mL (≈ 59.9 to 73.2 mM)
- solubility ([3]; organic solvent or mixture, methanol, 50° C.): 27 to 33 mg/mL (≈ 59.9 to 73.2 mM)
- Solubility profile: water (description) ([3]; water): Water: Very slightly soluble
- solubility ([4]; USP buffer solutions, aqueous buffer, thermodynamic from solid, USP buffers, native pH 2.0, 4.0, 6.0 and 8.0, read-out: Solubility range): < 1 mg/mL
- pH solubility profile, description form ([4]; pH 2.0 to 8.0): very slight solubility; also recorded: Very slightly
- pH solubility profile, description form ([4]; pH 2.0 to 8.0, listed as Form III): From pH = 2 to pH = 8: very slightly soluble
- Solubility in the screening solvents [5]: low solubility
